Experiments:
[1] = molecular target: Serine/threonine-protein kinase MAK (Homo sapiens) (UniProt P20794); experiment: Inhibition of MAK (unknown origin) assessed as residual activity at 1000 nM by KINOMEscan analysis relative to control
[2] = molecular target: T1, Serine/threonine-protein kinase RIO1 (Homo sapiens) (UniProt Q9BRS2); experiment: Inhibition of RIOK1 (unknown origin) assessed as residual activity at 1000 nM by KINOMEscan analysis relative to control
T1 sequence (whole entry): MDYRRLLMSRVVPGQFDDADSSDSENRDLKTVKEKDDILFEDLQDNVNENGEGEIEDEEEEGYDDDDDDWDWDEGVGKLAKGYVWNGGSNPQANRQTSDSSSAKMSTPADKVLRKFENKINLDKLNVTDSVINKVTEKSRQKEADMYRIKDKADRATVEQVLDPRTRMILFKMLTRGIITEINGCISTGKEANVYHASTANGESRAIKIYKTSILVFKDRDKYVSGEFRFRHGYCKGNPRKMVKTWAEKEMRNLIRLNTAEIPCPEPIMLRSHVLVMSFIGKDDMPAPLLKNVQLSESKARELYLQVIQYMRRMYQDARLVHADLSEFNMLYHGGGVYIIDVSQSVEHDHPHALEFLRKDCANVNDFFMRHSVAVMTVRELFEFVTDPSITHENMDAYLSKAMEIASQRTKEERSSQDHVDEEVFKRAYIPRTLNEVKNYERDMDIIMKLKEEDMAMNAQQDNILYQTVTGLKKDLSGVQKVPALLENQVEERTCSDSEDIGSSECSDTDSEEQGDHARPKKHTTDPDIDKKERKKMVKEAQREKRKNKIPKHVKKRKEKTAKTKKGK

[3] = molecular target: Phosphatidylinositol 4-phosphate 3-kinase C2 domain-containing subunit beta (Homo sapiens) (UniProt O00750); experiment: Inhibition of PIK3C2B (unknown origin) assessed as residual activity at 1000 nM by KINOMEscan analysis relative to control
[4] = molecular target: T2, Testis-specific serine/threonine-protein kinase 1 (Homo sapiens) (UniProt Q9BXA7); experiment: Inhibition of TSSK1B (unknown origin) assessed as residual activity at 1000 nM by KINOMEscan analysis relative to control
T2 sequence (whole entry): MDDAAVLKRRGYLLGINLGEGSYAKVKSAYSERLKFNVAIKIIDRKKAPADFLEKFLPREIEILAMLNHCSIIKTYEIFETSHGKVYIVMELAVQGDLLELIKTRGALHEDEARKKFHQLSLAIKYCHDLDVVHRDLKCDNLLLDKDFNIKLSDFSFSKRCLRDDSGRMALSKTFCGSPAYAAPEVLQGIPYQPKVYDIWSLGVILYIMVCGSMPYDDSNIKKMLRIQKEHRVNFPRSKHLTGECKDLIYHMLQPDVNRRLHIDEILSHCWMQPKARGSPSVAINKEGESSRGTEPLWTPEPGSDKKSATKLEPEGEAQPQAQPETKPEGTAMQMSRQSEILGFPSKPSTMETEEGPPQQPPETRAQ

[5] = molecular target: T3, Serine/threonine-protein kinase Nek3 (Homo sapiens) (UniProt P51956); experiment: Inhibition of NEK3 (unknown origin) assessed as residual activity at 1000 nM by KINOMEscan analysis relative to control
T3 sequence (whole entry): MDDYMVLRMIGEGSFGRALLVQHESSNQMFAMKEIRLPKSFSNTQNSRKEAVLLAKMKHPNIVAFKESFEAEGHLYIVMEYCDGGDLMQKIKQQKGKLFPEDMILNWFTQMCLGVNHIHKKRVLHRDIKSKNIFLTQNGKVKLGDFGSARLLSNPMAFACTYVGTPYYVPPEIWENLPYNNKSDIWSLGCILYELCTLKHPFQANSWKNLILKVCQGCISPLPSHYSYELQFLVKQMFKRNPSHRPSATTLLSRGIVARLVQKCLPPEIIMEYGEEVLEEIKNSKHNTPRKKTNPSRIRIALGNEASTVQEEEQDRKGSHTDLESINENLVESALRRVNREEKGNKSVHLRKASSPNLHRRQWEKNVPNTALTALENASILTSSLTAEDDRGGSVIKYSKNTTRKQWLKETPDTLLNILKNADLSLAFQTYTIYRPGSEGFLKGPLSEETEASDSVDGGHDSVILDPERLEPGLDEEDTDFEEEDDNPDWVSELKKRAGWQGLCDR

[6] = molecular target: Mitogen-activated protein kinase kinase kinase 14 (Homo sapiens) (UniProt Q99558); experiment: Inhibition of NIK (unknown origin) assessed as residual activity at 1000 nM by KINOMEscan analysis relative to control
[7] = molecular target: Mitogen-activated protein kinase 4 (Homo sapiens) (UniProt P31152); experiment: Inhibition of ERK4 (unknown origin) assessed as residual activity at 1000 nM by KINOMEscan analysis relative to control
[8] = molecular target: Tyrosine-protein kinase CSK (Homo sapiens) (UniProt P41240); experiment: Inhibition of CSK (unknown origin) assessed as residual activity at 1000 nM by KINOMEscan analysis relative to control
[9] = molecular target: Homeodomain-interacting protein kinase 2 (Homo sapiens) (UniProt Q9H2X6); experiment: Inhibition of HIPK2 (unknown origin) assessed as residual activity at 1000 nM by KINOMEscan analysis relative to control
[10] = molecular target: Glycogen synthase kinase-3 beta (Homo sapiens) (UniProt P49841); experiment: Inhibition of GSK3B (unknown origin) assessed as residual activity at 1000 nM by KINOMEscan analysis relative to control
[11] = system: Proto-oncogene tyrosine-protein kinase receptor Ret (Homo sapiens), P07949 [V804M]; experiment: Inhibition of RET V804M mutant (unknown origin) assessed as residual activity at 1000 nM by KINOMEscan analysis relative to control
[12] = system: Tyrosine-protein kinase ABL1 (Homo sapiens), P00519 [H396P]; experiment: Inhibition of phosphorylated ABL1 H396P mutant (unknown origin) assessed as residual activity at 1000 nM by KINOMEscan analysis relative to control
[13] = molecular target: Protein-tyrosine kinase 2-beta (Homo sapiens) (UniProt Q14289); experiment: Inhibition of PYK2 (unknown origin) assessed as residual activity at 1000 nM by KINOMEscan analysis relative to control
[14] = molecular target: Tyrosine-protein kinase BTK (Homo sapiens) (UniProt Q06187); experiment: Inhibition of BTK (unknown origin) assessed as residual activity at 1000 nM by KINOMEscan analysis relative to control
[15] = system: Epidermal growth factor receptor (Homo sapiens), P00533 [UNDEFINED MUTATION]; experiment: Inhibition of EGFR L747-E749del/A750P mutant (unknown origin) assessed as residual activity at 1000 nM by KINOMEscan analysis relative to control
[16] = molecular target: Serine/threonine-protein kinase Nek4 (Homo sapiens) (UniProt P51957); experiment: Inhibition of NEK4 (unknown origin) assessed as residual activity at 1000 nM by KINOMEscan analysis relative to control

Sequence of Homeodomain-interacting protein kinase 2 (Homo sapiens) (Q9H2X6 whole entry, looked up): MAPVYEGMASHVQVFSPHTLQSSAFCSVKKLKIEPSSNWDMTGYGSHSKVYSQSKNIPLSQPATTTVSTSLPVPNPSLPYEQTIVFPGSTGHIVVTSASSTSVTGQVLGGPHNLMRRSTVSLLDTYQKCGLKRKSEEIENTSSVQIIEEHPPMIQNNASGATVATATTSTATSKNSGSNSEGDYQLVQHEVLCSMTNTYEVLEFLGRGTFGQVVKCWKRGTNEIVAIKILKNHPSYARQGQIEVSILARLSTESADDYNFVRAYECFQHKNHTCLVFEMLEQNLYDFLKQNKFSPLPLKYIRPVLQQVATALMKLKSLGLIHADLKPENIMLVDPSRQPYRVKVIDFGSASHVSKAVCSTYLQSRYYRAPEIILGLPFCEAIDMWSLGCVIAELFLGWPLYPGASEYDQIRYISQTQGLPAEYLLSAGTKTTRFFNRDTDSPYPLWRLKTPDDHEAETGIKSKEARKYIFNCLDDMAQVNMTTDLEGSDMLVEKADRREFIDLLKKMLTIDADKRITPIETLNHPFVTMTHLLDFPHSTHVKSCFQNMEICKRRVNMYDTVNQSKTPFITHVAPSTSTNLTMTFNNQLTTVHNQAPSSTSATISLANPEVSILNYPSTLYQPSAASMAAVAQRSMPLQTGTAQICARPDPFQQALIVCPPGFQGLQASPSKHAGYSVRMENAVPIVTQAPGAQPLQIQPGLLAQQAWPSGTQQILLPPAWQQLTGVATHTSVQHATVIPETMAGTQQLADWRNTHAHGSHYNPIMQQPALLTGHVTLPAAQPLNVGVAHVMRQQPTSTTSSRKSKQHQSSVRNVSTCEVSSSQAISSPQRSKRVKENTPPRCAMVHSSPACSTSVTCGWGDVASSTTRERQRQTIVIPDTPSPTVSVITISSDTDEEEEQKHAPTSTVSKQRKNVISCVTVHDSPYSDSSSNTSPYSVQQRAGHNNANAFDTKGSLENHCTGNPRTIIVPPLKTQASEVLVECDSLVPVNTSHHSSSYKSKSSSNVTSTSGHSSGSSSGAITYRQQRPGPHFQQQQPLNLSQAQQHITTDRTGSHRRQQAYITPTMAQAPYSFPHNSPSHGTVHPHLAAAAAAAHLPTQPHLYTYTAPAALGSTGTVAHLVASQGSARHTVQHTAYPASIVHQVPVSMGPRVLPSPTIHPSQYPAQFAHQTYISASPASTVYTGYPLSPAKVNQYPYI
Sequence of Tyrosine-protein kinase CSK (Homo sapiens) (P41240 2-450 limits assumed): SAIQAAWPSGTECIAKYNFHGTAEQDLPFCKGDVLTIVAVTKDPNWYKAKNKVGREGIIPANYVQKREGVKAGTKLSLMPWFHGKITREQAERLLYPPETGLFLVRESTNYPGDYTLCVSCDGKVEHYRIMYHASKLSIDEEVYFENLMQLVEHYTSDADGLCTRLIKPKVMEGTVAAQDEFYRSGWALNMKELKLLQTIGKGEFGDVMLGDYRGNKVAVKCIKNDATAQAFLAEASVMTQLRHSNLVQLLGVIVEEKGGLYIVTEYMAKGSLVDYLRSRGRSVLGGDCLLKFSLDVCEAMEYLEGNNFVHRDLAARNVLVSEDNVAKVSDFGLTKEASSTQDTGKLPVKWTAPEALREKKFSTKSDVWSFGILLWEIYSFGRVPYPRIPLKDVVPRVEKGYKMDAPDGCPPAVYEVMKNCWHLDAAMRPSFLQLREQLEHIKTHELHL
Sequence of Epidermal growth factor receptor (Homo sapiens), P00533 [UNDEFINED MUTATION] (P00533 whole entry, looked up, stated change not applied): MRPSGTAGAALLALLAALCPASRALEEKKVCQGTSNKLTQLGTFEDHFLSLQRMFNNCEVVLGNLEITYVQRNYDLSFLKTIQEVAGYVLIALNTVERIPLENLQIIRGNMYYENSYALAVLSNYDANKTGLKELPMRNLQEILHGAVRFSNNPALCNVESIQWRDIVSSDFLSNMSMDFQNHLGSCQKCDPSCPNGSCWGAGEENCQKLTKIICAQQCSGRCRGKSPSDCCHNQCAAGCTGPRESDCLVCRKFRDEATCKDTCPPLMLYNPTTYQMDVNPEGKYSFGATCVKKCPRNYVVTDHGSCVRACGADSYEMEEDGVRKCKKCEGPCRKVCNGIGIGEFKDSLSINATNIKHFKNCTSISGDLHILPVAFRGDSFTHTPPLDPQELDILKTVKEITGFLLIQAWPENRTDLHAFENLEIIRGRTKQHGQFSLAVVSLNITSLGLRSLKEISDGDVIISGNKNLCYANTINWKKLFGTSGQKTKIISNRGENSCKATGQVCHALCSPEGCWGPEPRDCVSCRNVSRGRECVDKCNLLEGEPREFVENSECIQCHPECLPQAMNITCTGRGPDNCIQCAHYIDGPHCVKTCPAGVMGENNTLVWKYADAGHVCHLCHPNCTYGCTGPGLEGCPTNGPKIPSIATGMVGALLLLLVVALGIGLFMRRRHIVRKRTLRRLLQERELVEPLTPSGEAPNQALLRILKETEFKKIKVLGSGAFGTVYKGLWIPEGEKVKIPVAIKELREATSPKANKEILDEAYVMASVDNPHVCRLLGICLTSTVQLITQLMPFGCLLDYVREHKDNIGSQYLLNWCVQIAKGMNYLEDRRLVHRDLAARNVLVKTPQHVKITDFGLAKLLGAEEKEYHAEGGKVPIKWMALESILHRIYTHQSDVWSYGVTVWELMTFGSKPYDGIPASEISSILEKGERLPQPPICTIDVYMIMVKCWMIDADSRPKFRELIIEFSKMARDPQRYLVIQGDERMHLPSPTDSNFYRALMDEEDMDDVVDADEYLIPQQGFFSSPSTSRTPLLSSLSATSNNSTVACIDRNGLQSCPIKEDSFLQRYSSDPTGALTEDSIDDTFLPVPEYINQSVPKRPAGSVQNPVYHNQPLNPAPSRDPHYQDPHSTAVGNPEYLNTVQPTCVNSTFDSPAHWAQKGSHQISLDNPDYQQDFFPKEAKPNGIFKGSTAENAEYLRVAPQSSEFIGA
Sequence of Mitogen-activated protein kinase 4 (Homo sapiens) (P31152 whole entry): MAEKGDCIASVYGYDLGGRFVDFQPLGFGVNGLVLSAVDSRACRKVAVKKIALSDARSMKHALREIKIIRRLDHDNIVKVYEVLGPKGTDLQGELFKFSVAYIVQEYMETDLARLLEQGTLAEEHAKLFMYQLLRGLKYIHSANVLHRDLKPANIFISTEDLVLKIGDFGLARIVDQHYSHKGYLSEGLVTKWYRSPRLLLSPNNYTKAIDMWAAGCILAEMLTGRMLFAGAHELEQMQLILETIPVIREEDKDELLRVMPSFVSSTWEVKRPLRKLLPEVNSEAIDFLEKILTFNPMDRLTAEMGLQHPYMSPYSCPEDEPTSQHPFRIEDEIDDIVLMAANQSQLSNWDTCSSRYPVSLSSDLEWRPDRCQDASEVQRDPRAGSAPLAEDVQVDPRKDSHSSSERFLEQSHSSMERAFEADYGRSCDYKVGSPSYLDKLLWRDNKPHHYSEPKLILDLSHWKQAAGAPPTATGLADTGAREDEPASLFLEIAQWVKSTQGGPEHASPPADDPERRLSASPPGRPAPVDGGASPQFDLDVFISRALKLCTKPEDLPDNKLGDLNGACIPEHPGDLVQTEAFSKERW
Sequence of Protein-tyrosine kinase 2-beta (Homo sapiens) (Q14289 whole entry, looked up): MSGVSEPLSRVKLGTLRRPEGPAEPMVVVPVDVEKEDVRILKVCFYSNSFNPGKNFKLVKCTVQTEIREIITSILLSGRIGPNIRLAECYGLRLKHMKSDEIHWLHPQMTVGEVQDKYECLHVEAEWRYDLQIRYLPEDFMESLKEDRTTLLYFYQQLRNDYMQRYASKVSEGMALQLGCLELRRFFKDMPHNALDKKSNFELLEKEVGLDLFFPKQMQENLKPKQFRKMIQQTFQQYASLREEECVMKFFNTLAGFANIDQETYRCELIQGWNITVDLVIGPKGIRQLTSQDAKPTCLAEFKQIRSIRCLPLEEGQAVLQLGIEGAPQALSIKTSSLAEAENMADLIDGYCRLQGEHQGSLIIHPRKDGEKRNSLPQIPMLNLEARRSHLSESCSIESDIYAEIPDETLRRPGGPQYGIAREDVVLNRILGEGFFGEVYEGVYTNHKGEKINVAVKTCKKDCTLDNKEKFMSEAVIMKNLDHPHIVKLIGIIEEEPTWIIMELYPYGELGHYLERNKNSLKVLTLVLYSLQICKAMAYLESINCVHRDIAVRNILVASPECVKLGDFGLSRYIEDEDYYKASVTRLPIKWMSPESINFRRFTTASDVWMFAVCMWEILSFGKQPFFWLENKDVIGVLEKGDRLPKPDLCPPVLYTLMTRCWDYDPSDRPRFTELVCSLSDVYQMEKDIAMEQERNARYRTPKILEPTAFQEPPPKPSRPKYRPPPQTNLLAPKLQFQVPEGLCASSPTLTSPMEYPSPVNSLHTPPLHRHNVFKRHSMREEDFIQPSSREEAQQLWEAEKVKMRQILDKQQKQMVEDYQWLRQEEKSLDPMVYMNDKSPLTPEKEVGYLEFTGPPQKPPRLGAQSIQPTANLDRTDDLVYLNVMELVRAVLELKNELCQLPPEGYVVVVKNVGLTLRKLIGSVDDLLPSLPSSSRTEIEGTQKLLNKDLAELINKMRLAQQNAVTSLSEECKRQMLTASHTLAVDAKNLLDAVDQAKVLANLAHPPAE
Sequence of Serine/threonine-protein kinase MAK (Homo sapiens) (P20794 whole entry, looked up): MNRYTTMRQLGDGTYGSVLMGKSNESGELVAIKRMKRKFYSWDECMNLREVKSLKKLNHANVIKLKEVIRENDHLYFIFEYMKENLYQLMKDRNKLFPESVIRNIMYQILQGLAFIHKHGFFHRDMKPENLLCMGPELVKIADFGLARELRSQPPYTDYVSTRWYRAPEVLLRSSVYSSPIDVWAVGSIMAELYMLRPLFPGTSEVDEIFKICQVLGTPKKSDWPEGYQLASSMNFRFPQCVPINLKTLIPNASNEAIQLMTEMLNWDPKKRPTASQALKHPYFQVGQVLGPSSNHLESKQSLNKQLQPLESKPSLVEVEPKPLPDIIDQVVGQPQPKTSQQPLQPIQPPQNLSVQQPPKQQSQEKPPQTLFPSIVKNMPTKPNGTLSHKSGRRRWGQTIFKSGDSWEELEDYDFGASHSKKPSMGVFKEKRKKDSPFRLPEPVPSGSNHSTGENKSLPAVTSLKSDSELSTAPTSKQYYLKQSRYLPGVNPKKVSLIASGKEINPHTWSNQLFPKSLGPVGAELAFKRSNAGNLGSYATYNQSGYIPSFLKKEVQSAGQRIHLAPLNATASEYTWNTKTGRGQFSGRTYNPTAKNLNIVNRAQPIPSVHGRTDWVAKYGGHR

Structure (SMILES)	Activity [1] [%]	Activity [2] [%]	Activity [3] [%]	Activity [4] [%]	Activity [5] [%]	Activity [6] [%]	Activity [7] [%]	Activity [8] [%]	Activity [9] [%]	Activity [10] [%]	Activity [11] [%]	Activity [12] [%]	Activity [13] [%]	Activity [14] [%]	Activity [15] [%]	Activity [16] [%]
COc1cc2nc(C)nc(N[C@H](C)c3cccc(-c4cn[nH]c4)c3)c2cc1OC	80	49	90	98	42	88	92	93	100	61	92	91	38	100	99	81
COc1cc2ncnc(N[C@H](C)c3cccc4ccccc34)c2cc1OC	100	82	89	100	93	91	89	87	98	100	100	93	100	97	3.2	90

From ChEMBL document CHEMBL5678818, “Discovery of potent SOS1 inhibitors that block RAS activation via disruption of the RAS-SOS1 interaction” (Proc Natl Acad Sci U S A, 2019)
